Data from ChEMBL document CHEMBL3879901, “Substituted isoquinolin-1(2H)-ones, and methods of use thereof” (2012).
Active and inactive are the calls of the source. The rule behind the calls is not given here.

Experiments:
[1] = test system: Mus musculus; assay: Reduction of TNP-Ficoll-induced T cell independent B cell activation in BDA-1 mouse assessed as decrease in IgG3 levels in serum at 1 mg/kg, po bid administered for 7 days by ELISA relative to control; type: functional
[2] = test system: Rattus norvegicus; assay: Antiarthritic activity in type 2 collagen-induced po dosed Lewis rat arthritis model assessed as reduction in knee pannus administered every 12 hrs for 16 days measured on day 17 of post last dose by toluidine blue staining-based assay; type: functional, organism-based
[3] = test system: Rattus norvegicus; assay: Antiarthritic activity in type 2 collagen-induced Lewis rat arthritis model assessed as reduction in serum anti-type 2 collagen levels at 30 mg/kg, po administered every 12 hrs for 16 days measured on day 17 of post last dose by ELISA relative to control; type: functional; set-up: scale not given: the % may be the effect or the level left
[4] = test system: Rattus norvegicus; assay: Antiarthritic activity in type 2 collagen-induced Lewis rat arthritis model assessed as reduction in ankle inflammation at 60 mg/kg, po administered every 12 hrs for 16 days measured on day 17 of post last dose by toluidine blue staining-based assay; type: functional, organism-based
[5] = test system: Rattus norvegicus; assay: Antiarthritic activity in type 2 collagen-induced Lewis rat arthritis model assessed as reduction in serum anti-type 2 collagen levels at 10 mg/kg, po administered every 12 hrs for 16 days measured on day 17 of post last dose by ELISA relative to control; type: functional; set-up: scale not given: the % may be the effect or the level left
[6] = organism: Mus musculus; assay: Inhibition of TNP-Ficoll or TNP-KHL-stimulated IgG3 response in mouse in presence of mTOR inhibitor rapamycin by ELISA relative to vehicle-treated control; type: functional
[7] = target: PI3-kinase p110-alpha/p85-alpha (Homo sapiens, UniProt P42336); assay: Inhibition of N-terminal His6-tagged recombinant full-length human p110alpha/untagged recombinant full length human p85alpha expressed in baculovirus infected Sf21 cells using phosphatidylinositol as substrate in presence of gamma-32P-ATP after 5 mins by thin layer chromatographic method
Sequence of PI3-kinase p110-alpha/p85-alpha (P27986 whole entry): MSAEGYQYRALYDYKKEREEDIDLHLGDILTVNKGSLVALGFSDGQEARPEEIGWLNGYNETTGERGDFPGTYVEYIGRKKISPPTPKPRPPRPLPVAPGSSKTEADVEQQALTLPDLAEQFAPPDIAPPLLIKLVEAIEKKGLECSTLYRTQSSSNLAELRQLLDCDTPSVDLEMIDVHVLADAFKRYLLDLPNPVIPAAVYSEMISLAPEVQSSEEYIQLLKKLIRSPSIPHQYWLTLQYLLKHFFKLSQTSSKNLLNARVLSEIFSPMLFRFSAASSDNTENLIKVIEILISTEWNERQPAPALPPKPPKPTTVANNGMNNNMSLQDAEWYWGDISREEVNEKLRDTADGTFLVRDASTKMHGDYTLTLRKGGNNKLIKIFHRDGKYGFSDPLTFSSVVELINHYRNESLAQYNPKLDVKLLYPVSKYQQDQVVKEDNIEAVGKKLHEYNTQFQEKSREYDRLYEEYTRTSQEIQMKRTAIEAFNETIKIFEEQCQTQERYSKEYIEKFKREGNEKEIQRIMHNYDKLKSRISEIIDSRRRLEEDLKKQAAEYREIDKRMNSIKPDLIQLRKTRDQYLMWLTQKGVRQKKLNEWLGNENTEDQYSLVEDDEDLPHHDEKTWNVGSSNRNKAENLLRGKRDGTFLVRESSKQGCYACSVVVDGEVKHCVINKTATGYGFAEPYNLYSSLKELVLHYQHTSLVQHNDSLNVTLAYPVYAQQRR
Sequence of PI3-kinase p110-alpha/p85-alpha (P42336 whole entry): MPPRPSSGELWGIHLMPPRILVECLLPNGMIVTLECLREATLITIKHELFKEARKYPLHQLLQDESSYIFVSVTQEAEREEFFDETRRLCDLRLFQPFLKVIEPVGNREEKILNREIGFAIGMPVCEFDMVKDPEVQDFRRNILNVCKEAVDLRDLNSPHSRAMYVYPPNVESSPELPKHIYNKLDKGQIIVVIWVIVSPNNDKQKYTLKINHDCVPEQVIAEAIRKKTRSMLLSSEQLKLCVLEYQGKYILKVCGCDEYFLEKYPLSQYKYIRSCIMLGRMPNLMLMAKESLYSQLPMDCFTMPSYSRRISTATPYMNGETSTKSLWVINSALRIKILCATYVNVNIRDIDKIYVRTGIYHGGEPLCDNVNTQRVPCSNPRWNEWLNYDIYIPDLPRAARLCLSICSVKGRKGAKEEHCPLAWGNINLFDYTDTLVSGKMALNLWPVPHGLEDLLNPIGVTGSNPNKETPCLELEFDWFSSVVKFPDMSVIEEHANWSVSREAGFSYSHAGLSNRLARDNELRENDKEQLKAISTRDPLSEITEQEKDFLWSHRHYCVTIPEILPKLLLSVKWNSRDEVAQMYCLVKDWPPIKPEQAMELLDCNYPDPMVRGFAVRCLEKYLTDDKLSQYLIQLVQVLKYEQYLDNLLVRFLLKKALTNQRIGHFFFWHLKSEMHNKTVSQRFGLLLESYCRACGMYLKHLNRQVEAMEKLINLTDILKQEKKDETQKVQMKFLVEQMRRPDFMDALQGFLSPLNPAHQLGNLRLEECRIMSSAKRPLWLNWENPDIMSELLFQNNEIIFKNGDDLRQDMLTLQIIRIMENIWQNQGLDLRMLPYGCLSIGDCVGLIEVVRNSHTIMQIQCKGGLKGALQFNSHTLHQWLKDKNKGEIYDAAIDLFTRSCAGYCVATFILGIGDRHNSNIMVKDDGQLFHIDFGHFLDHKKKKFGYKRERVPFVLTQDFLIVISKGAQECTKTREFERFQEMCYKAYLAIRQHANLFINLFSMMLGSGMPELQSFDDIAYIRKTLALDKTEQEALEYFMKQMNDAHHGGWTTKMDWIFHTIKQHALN

[8] = test system: Rattus norvegicus; assay: Antiarthritic activity in type 2 collagen-induced Lewis rat arthritis model assessed as reduction in cartilage damage in ankle at 60 mg/kg, po administered every 12 hrs for 16 days measured on day 17 of post last dose by toluidine blue staining-based assay; type: functional, organism-based

With `CC(=O)Nc1nc2ccc(-c3nn(Cc4cc5cccc(C)c5c(=O)n4-c4ccccc4C)c4ncnc(N)c34)cc2s1` as the compound, how does the “fold change (FC)” value [1] read?
Its value is 0.6.

And the Activity [2]?
Its Activity is “Dose-dependent effect”.

And the Activity [3]?
The Activity was 87%.

What about the Activity [4] of the same compound?
Its Activity is “Active”.

And the Activity [5]?
The Activity was 75%.

And the inhibition [6]?
The inhibition was “Active”.

What about the IC50 [7] of the same compound?
The IC50 was 1 to 10 µM.

And the Activity [8]?
Its Activity is “Active”.
